Measurements from ChEMBL document CHEMBL1136870, “Synthesis of aristolactam analogues and evaluation of their antitumor activity” (2009).

Tests used:
Type in all cases: functional
[1] = tested on: A-431; assay: Antiproliferative activity against human A431 cells by SRB assay
[2] = tested on: SK-OV-3; assay: Antiproliferative activity against human SKOV3 cells by SRB assay
[3] = tested on: BT-474; assay: Antiproliferative activity against human BT474 cells by SRB assay
[4] = tested on: MDA-MB-231; assay: Antiproliferative activity against human MDA-MB-231 cells by SRB assay
[5] = tested on: A549; assay: Antiproliferative activity against human A549 cells by SRB assay
[6] = tested on: HCT-15; assay: Antiproliferative activity against human HCT15 cells by SRB assay
[7] = Antiproliferative activity against multidrug resistant human MES-SA/Dx5 cells by SRB assay
[8] = Antiproliferative activity against multidrug resistant human HCT15/CLO2 cells by SRB assay; conditions: HCT-15
[9] = Antiproliferative activity against human MESSA cells by SRB assay; conditions: MES-SA

| SMILES | GI50 [1] [µM] | GI50 [2] [µM] | GI50 [3] [µM] | GI50 [4] [µM] | GI50 [5] [µM] | GI50 [6] [µM] | GI50 [7] [µM] | GI50 [8] [µM] | GI50 [9] [µM] |
| --- | --- | --- | --- | --- | --- | --- | --- | --- | --- |
| COc1cc2c3c(cc4ccccc4c3c1OC)N(CCc1ccccc1)C2=O | 23.7 | 13.4 | 12.8 | > 30 | – | – | – | – | – |
| Cc1c2c3c(cccc3c3ccccc13)C(=O)N2C | 2.83 | 13.1 | – | – | 1.62 | 3.79 | – | – | – |
| COc1cc2c3c(c(C)c4ccccc4c3c1OC)N(CCN1CCCCC1)C2=O | 0.18 | 0.33 | – | – | 0.18 | 0.27 | – | – | – |
| COc1cc2c3c(cc4ccccc4c3c1OC)N(C)C2=O | 5.75 | 3.42 | – | – | – | 8.47 | 9.52 | 8.61 | 3.84 |
| COc1cc2c3c(cc4cc5c(cc4c3c1OC)OCO5)N(C)C2=O | – | – | – | – | – | 5.93 | 18.9 | 1.64 | 27.1 |
| COc1cc2c3c(cc4cc(Cl)ccc4c3c1OC)N(C)C2=O | – | – | – | – | – | 2.94 | > 30 | 17.9 | > 30 |
| COc1cc2c3c(cc4ccc(C)cc4c3c1OC)N(C)C2=O | – | – | – | – | – | 1.53 | > 30 | 1.46 | > 30 |
| C#CCN1C(=O)c2cc(OC)c(OC)c3c2c1cc1ccccc13 | > 30 | > 30 | > 30 | > 30 | – | – | – | – | – |
| COc1cc2c3c(cc4ccccc4c3c1OC)N(Cc1cccs1)C2=O | > 30 | 23.8 | > 30 | > 30 | – | – | – | – | – |
| COc1ccc(N2C(=O)c3cc(OC)c(OC)c4c3c2cc2ccccc24)cc1 | 32.5 | 16.2 | 23.7 | > 30 | – | – | – | – | – |
| COc1cc2c3c(cc4c5c(ccc4c3c1OC)OCO5)N(CCN1CCCCC1)C2=O | < 0.1 | < 0.1 | – | – | < 0.1 | 0.1 | < 0.1 | 0.14 | < 0.1 |
| COc1cc2c3c(cc4ccccc4c3c1OC)N(CC1CC1)C2=O | 27.1 | 24.2 | 23 | > 30 | – | – | – | – | – |
| COc1cc2c3c(cc4cc(Cl)ccc4c3c1OC)N(CCN1CCCCC1)C2=O | 0.18 | 0.91 | – | – | 0.26 | 0.92 | 0.61 | 0.83 | 0.59 |
| COc1cc2c3c(cc4ccccc4c3c1OC)N(Cc1ccncc1)C2=O | > 30 | 9.94 | – | – | – | – | – | – | – |
| COc1cc2c3c(cc4ccccc4c3c1OC)N(CCN1CCCCC1)C2=O | 1.29 | 0.95 | – | – | 0.95 | 1.73 | 1.51 | 1.58 | 1.46 |
| COc1cc2cc3c4c(cc(OC)c(OC)c4c2cc1OC)C(=O)N3CCN1CCCCC1 | 1.19 | 1.71 | – | – | 1.54 | 4.22 | – | – | – |
| COc1ccc2c(c1)cc1c3c(cc(OC)c(OC)c32)C(=O)N1C | – | – | – | – | – | 0.3 | 0.76 | 0.16 | 1.22 |
| CN1C(=O)c2cccc3c2c1cc1ccccc13 | 8.02 | 4.26 | – | – | 1.54 | 4.21 | 3.56 | 5.72 | 1.81 |

| SMILES | GI50 [1] [µM] | GI50 [2] [µM] | GI50 [3] [µM] | GI50 [4] [µM] | GI50 [5] [µM] | GI50 [6] [µM] | GI50 [7] [µM] | GI50 [8] [µM] | GI50 [9] [µM] |
| --- | --- | --- | --- | --- | --- | --- | --- | --- | --- |
| COc1cc2c3c(c(C)c4ccccc4c3c1OC)N(C)C2=O | > 30 | > 30 | – | – | – | – | – | – | – |
| COc1cc2c3c(cc4c5c(ccc4c3c1OC)OCO5)N(CCN(C)C)C2=O | < 0.0001 | < 0.1 | – | – | < 0.1 | < 0.0001 | < 0.0001 | 0.0095 | < 0.0001 |
| COc1cc2cc3c4c(cc(OC)c(OC)c4c2cc1OC)C(=O)N3C | – | – | – | – | – | 0.06 | 1.01 | 0.07 | 1.05 |
| CCN1C(=O)c2cc(OC)c(OC)c3c2c1cc1ccccc13 | 10.9 | 5.45 | 4.16 | 9.37 | – | – | – | – | – |
| COc1cc2c3c(cc4ccccc4c3c1OC)N(C(C)C)C2=O | > 30 | 19.4 | 20.6 | > 30 | – | – | – | – | – |
| COCCN1C(=O)c2cc(OC)c(OC)c3c2c1cc1ccccc13 | > 30 | 24.3 | 22.5 | > 30 | – | – | – | – | – |
| COc1cc2c3c(cc4ccccc4c3c1OC)N(c1ccc(C(C)(C)C)cc1)C2=O | 3.51 | 6.04 | 11.1 | 18.2 | – | – | – | – | – |
| COc1ccc2cc3c4c(cc(OC)c(OC)c4c2c1)C(=O)N3CCN1CCCCC1 | 2.95 | 6.72 | – | – | 4.1 | 5.91 | – | – | – |
| COc1cc2cc3c4c(cc(OC)c(OC)c4c2cc1OC)C(=O)N3CCN(C)C | 0.15 | 0.33 | – | – | 0.19 | 0.72 | 0.51 | 0.57 | 0.39 |
| COc1cc2c3c(cc4ccccc4c3c1OC)N(CCN1CCOCC1)C2=O | 4.64 | 5.49 | – | – | – | – | – | – | – |
| COc1ccc2cc3c4c(cc(OC)c(OC)c4c2c1)C(=O)N3 [ARISTOLACTAM BIII] | – | – | – | – | – | 3.74 | 2.82 | 3.35 | 2.7 |
| COc1cc2c3c(cc4ccccc4c3c1OC)NC2=O [CEPHARANONE B] | – | – | – | – | – | > 30 | > 30 | > 30 | > 30 |
| COc1cccc2c1C(=O)c1c(O)c3c(c(O)c1C2=O)C[C@@](O)(C(=O)CO)C[C@@H]3O[C@H]1C[C@H](N)[C@H](O)[C@H](C)O1 [DOXORUBICIN] | 0.0012 | 0.021 | – | – | 0.003 | 0.19 | 0.93 | 7.92 | 0.0051 |
| COc1cc([C@@H]2c3cc4c(cc3[C@@H](O[C@@H]3O[C@@H]5CO[C@@H](C)O[C@H]5[C@H](O)[C@H]3O)[C@H]3COC(=O)[C@H]23)OCO4)cc(OC)c1O [ETOPOSIDE] | – | – | – | – | – | 1.25 | 9.72 | 10 | 0.21 |
| COc1cc2c3c(cc4ccccc4c3c1O)N(C)C2=O [N-METHYL PIPEROLACTAM A] | – | – | – | – | – | 12.8 | 14.5 | 10.8 | 14.5 |
| CC(=O)O[C@H]1C(=O)[C@@]2(C)[C@H]([C@H](OC(=O)c3ccccc3)[C@]3(O)C[C@H](OC(=O)[C@H](O)[C@@H](NC(=O)c4ccccc4)c4ccccc4)C(C)=C1C3(C)C)[C@]1(OC(C)=O)CO[C@@H]1C[C@@H]2O [PACLITAXEL] | < 1e-05 | – | – | – | – | 0.011 | 0.16 | 0.83 | < 1e-05 |
| COc1cc2c3c(cc4ccccc4c3c1O)NC2=O [PIPEROLACTAM A] | – | – | – | – | – | > 30 | 27 | > 30 | > 30 |
| COc1c(O)cc2c3c(cc4ccccc4c13)N(C)C2=O [SAURISTOLACTAM] | – | – | – | – | – | 4.1 | 23.1 | 4.38 | 23.8 |
